Series [1] deals with Tg(fli1a:nEGFP)^y7 zebrafish embryos. Kind of series: Primary high-content heart rate screen of the Prestwick Chemical Library (HeartBeat software v.2.1). Format: in vivo. As to conditions: 20 µM. From the text:
Acquired image series were preprocessed and analyzed using the previously published HeartBeat software v.2.1 and provided scripts ([Gierten et al., 2020]). For increased comparability between experiments, each quantitative HR value (beats per minute) was divided by the mean of the DMSO controls from the respective experiment. This procedure minimizes variation and creates specific fold-change values that are z-score normalized in the next step. A 90% CI was used to reduce the probability of false-negative results. Finally, data from compounds with insufficient N and known aquatic toxicity were removed.
Based on a previously established high-throughput screening pipeline, we performed a high-content drug screen in zebrafish for cardiovascular modulators ([Poureetezadi et al., 2014]; [Gierten et al., 2020]; [Westhoff et al., 2020]). […] About 98% of the library’s compounds are approved by the Food and Drug Administration (FDA), European Medicines Agency (EMA) or other regulatory agencies. The drug library was screened at a concentration of 20 µM for 24 h until 48 hpf using the transgenic zebrafish line Tg(fli1a:nEGFP)^y7. Subsequently, BF images and videos were captured at 2 dpf to assess gross morphology. HR was analyzed with the previously published tool HeartBeat (v.2.1) to identify potential hit compounds. A 90% CI threshold for effect sizes of ±1.64 was used to reduce false-negative results. […] The Open Targets platform and the Mayo Clinic Drugs and Supplements Database were systematically searched for compound names and common synonyms ([Drugs and Supplements, 2022]; [Open Targets, 2022]). The Medical Subject Headings (MeSH) terms “compound name” and “heart rate” were applied to NCBI PubMed literature research before the first five pages of publications sorted by relevance were screened for relevant information. Furthermore, compounds were filtered for unknown targets (n = 3), FDA black box warning (n = 6) and aquatic toxicity (n = 4). […] Therefore, compounds with n < 3 were excluded (n = 7).

For series [2], the system named is Tg(myl7:eGFP)^twu34/+ zebrafish embryos. Kind of series: Chamber-specific quantitative heart phenotyping with pyHeart4Fish.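 As to all read-outs here: embryos exposed 24 h from 24 hpf in 0.2% DMSO egg water, tricaine-anaesthetised, heartbeat videos imaged at 470 nm and hearts analysed chamber by chamber from pixel-intensity beat curves.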 As to conditions: 20 µM; for Effect on heart function / morphology: contractility, conduction, arrhythmia, HS, EF / Effect on heart rate: vs DMSO controls; for Arrhythmia / Conduction defect: number of fish.
Description: (§1) Embryos were dechorionated at 21 hpf using 0.22 mg/ml pronase (Merck Chemicals) for 12 min. Then, embryos were carefully washed three times with egg water and transferred into a 96-deep-well plate. After incubation at 28°C for 3 h, excess water was removed with a glass capillary and exchanged with 100 µL/well of 20 µM compound solution from the Prestwick Chemical Library (Prestwick Chemicals, France) in 0.2% DMSO (v/v) in egg water. […] Subsequently, embryos were exposed to compounds for 24 h at 28°C in the dark to enable testing of light-sensitive compounds. Solutions were removed at 48 hpf before wells containing embryos were washed three times with system water. Then, treated embryos were transferred into 12-well plates containing 1 ml 0.03% tricaine in system water (Sigma-Aldrich, Germany). Testing different concentrations (5–80 µM) of compounds and their respective controls followed the above protocol.
(§2) Oriented embryos in 96-well plates were automatically imaged using an [sequence] Imaging Machine ([sequence] Imaging, Germany) widefield microscope. Z-stacks of 10 slices (dZ = 15 µm) were acquired in brightfield (BF) and 470 nm channels with a 4×0.13 numerical aperture objective. The focal plane was detected in the 470 nm channel using a course and secondary fine software autofocus. BF integration time was fixed at 20 ms exposure time and 55% LED intensity. The exposure time for the 470 nm channel was set to 10 ms with a 10% LED intensity. Heartbeat videos of 6 s at 6 frames/second (f/s) were acquired with a time-lapse at a 0 s interval in the focus plane acquired after secondary autofocus using the previously described integration and exposure settings with a 10×0.25 numerical aperture objective.
(§3) Hearts are analyzed chamber-specifically via the user-assisted region of interest (ROI) selection. Cardiac morphology parameters (HS and shape) are extracted as the median of the first six images/frames. Raw data of heartbeat curves for the atrium and ventricle are derived from the sum of pixel intensities and normalized chamber areas. Frequencies (in s^-1) of atrium and ventricle contraction are obtained by applying sine-curve fitting or fast Fourier transformation (FFT) using the SciPy modules “optimize.curve_fit” and “fft.rfft/fft.rfftfreq”, respectively ([Virtanen et al., 2020]). Curve fitting is performed with a maximum of 30 iterations while increasing the frequencies of the fitted sine function. The best fit is selected using the correlation coefficient between the raw data and the fitted function implemented in the NumPy package. A fitted sine function and fitting score are also determined for a truncated signal (first quarter), and the best-fitted sine function is kept to account for an unstable heartbeat signal. In the case of FFT, the first harmonic of the FFT signal is used as the frequency of the atrium or ventricle contraction. Analysis with pyHeart4Fish provides heartbeat videos in GIF format, heartbeat curves as PNG/PDF files and a data sheet containing meta information and cardiac parameters.
Series [3] deals with zebrafish embryos. Kind of series: Manually assessed pericardial edema in treated zebrafish. As to conditions: for Pericardial edema severity: myl7:eGFP zebrafish. Format: in vivo. From the text: FIGURE 4 Quantitative data analysis with pyHeart4Fish. […] (A) The left graph presents the detected heart rate derived from the fast fourier transformation (FFT). […] (B) Percentual data on the severity of manually assessed pericardial edema in treated Tg(myl7:eGPF)^twu34/+ zebrafish. (C) The relative contractility derived from percentual size changes of each heart chamber (left graph). Approximate ejection fraction determined by chamber volume changes (right graph). […] The number of fish analyzed is shown in brackets after the treatment condition. Dotted gray lines indicate z-scores of ±1.96 and statistical significance with an alpha error of 5%.

In series [4] the test system is zebrafish embryos. Kind of series: Gross morphology / development of treated zebrafish 2 dpf (brightfield). Particulars: 20 µM; for Gross morphology / developmental and teratogenic effects: 2 dpf. The class given is in vivo. The procedure:
FIGURE 5 Morphology of treated zebrafish 2 dpf. An overview of the gross phenotypes of treated zebrafish 2 days post-fertilization. All compounds were dissolved in DMSO; therefore, DMSO served as the negative control. NaCl served as the salt control. The effects of atorvastatin treatment on zebrafish embryos were previously established; thus, this drug was used as a positive control for cardioactivity. The aquatic toxic compound enilconazole was used as the toxic positive control. […] The black arrow in the image of iopanoic acid-treated zebrafish embryo indicates caudal fin deformity. The scale bar indicates 500 µm in overview brightfield images and 150 µm in fluorescence images. (a) Atrium; (v) ventricle.

On the set-up of series [5]: method as in Prestwick Chemical Library. As to conditions: solvents; library annotation, ref Prestwick Chemical Library; cited from earlier work.
Series [6] has as its system zebrafish embryos. Kind of series: Toxicity score (ToxScore) at increasing compound concentrations. As to conditions: 5–80 µM.
Description: as §1
Embryos that were deceased and not intact were assigned a max. ToxScore value of 5.
Series [7] deals with Tg(myl7:eGFP)^twu34/+ zebrafish embryos. Particulars: in vivo.
Description: as §1, §2, §3
Setting [8] is: 24 h until 48 hpf, Tg(fli1a:nEGFP)y7.
Setting [9] is: number of fish, 20 µM, Tg(myl7:eGFP).
[10] abbreviates: Tg(fli1a:nEGFP)^y7, zebrafish, in vivo, 24 h.

“Also recorded” adds a separate entry of the source. Counter-ions that a name gives are not always drawn. Like-named read-outs stand apart in the source and are kept apart here.

For the compound `CCOC(=O)N1CCC(=C2c3ccc(Cl)cc3CCc3cccnc32)CC1` [Loratadine], the “Z-score Heart rate” value in series [1] (setting [8]) is -1.771 z-score.

On to `Cc1cc(/C=C/c2ccc3cc(N(C)C)ccc3[n+]2C)c(C)n1-c1ccccc1` [Pyrvinium pamoate], for which, in series [2], the “Effect on heart function / morphology: contractility, conduction, arrhythmia, HS, EF” value (“Effect on heart function / morphology” below) was “did not affect relative contractility, conduction, and HS”; the Arrhythmia was 1; the Conduction defect amounted to 0. For the same compound, in series [3] (setting [9]), the “Edema: Mild” value was 1, the “Edema: Moderate” value turned out to be 0, the “Edema: No edema” value amounted to 4 and the “Edema: Severe” value is 0. Also, in series [4], the “Gross morphology / developmental and teratogenic effects” value is listed as “no teratogenic effects”.

With `CN(C)CCOC(c1ccc(Cl)cc1)c1ccccn1.O=C(O)/C=C\C(=O)O` (centres unmarked) [Carbinoxamine maleate salt], in series [5], the “Lit. Solubility” value was “H2O, EtOH, CHCl3”.

`CN1CCCN(C(c2ccccc2)c2ccc(Cl)cc2)CC1.Cl.Cl` (centres unmarked) [Homochlorcyclizine dihydrochloride]: the “Z-score Heart rate” value in series [1] (setting [8]) was -1.853 z-score.

Regarding `CN1CCCC(n2nc(Cc3ccc(Cl)cc3)c3ccccc3c2=O)CC1` (centres unmarked) [Azelastine hydrochloride], the “Lit. Solubility” value in series [5] is listed as “H2O, EtOH, DMSO”. Besides, the “Z-score Heart rate” value in series [1] (setting [10]) is listed as -2.598 z-score.

As for `CC(C)c1c(C(=O)Nc2ccccc2)c(-c2ccccc2)c(-c2ccc(F)cc2)n1CC[C@@H](O)C[C@@H](O)CC(=O)O` [Atorvastatin, atorvastatin], in series [2], the “Effect on heart function / morphology” value is “did not cause electrophysiological conduction defects”; the “Effect on heart rate” value is reported as “significantly decreased HR”; the Arrhythmia is reported as 11; the Conduction defect turned out to be 0. Moreover, in series [3] (setting [9]), the “Edema: Mild” value came out at 5, the “Edema: Moderate” value came out at 1, the “Edema: No edema” value is given as 5 and the “Edema: Severe” value is 0.

Consider `CN(C)CCCOc1nn(Cc2ccccc2)c2ccccc12` [Benzydamine HCl], for which, in series [2], the “Effect on heart function / morphology” value is “do not induce arrhythmia”; the Arrhythmia is 1; the Conduction defect is reported as 0. Moreover, the “Effect on heart function / morphology” value in series [2] (listed as BZY) was “no conduction defects or arrhythmias were detected; also recorded: relative ventricle contractility increased significantly”. In addition, the “Treated embryos with pericardial edema” value in series [3] (20 µM) is on record as 50%. Besides, in series [3] (setting [9]), the “Edema: Mild” value amounted to 2, the “Edema: Moderate” value worked out at 0, the “Edema: No edema” value is 2 and the “Edema: Severe” value worked out at 0.

Take `C=CCOC(Cn1ccnc1)c1ccc(Cl)cc1Cl` (centres unmarked) [Enilconazole, enilconazole]: in series [2], the “Effect on heart rate” value is “significantly reduced HR”, the Arrhythmia stood at 1 and the Conduction defect came to 0. Besides, in series [3] (setting [9]), the “Edema: Mild” value is reported as 2, the “Edema: Moderate” value amounted to 0, the “Edema: No edema” value worked out at 3 and the “Edema: Severe” value stood at 0. Also, in series [4], the “Gross morphology / developmental and teratogenic effects” value is “inhibited pigmentation”. Besides, the “Treated fish with developmental delays” value in series [4] (both zebrafish lines) came out at 100%. In series [6], the “Concentration-dependent toxic effects” value is “dose-dependent”.

On to `OCCN1CCN(CCCN2c3ccccc3C=Cc3ccccc32)CC1` [Opipramol diHCl], for which, in series [2], the “Effect on heart function / morphology” value is given as “do not induce arrhythmia”; the “Effect on heart rate” value is recorded as “did not affect HR”; the Arrhythmia amounted to 1; the Conduction defect came to 0. Further, the “Effect on heart function / morphology” value in series [2] (listed as OPI) is reported as “significantly reduced relative ventricular contractility”. Further, in series [3] (20 µM), the “Pericardial edema severity” value is “mild edema”. Moreover, in series [3] (setting [9]), the “Edema: Mild” value worked out at 5, the “Edema: Moderate” value is listed as 0, the “Edema: No edema” value is 0 and the “Edema: Severe” value is 0. Also, the “Gross morphology / developmental and teratogenic effects” value in series [4] was “mild developmental delay”.

Consider `N=C(N)c1ccc(OCCCCCOc2ccc(C(=N)N)cc2)cc1` [Pentamidine isethionate], for which, in series [2], the Arrhythmia is listed as 1 and the Conduction defect stood at 0. In addition, in series [3] (setting [9]), the “Edema: Mild” value came to 4, the “Edema: Moderate” value was determined as 0, the “Edema: No edema” value came to 4 and the “Edema: Severe” value worked out at 0. The “Gross morphology / developmental and teratogenic effects” value in series [4] is listed as “did not reveal teratogenic effects”.

As to `CN1CCC[C@@H]1CCO[C@](C)(c1ccccc1)c1ccc(Cl)cc1` [Clemastine fumarate], in series [5], the “Lit. Solubility” value was “MeOH”. In series [1] (setting [10]), the “Z-score Heart rate” value is reported as -2.7618 z-score.

With `CC(=O)[C@H]1CC[C@H]2[C@@H]3CC=C4C[C@@H](O)CC[C@]4(C)[C@H]3CC[C@]12C` [Pregnenolone], the “Effect on heart function / morphology” value in series [2] (listed as P5) was “relative contractility of both heart chambers was affected by impaired contraction; also recorded: HS and morphology were not affected”. Besides, in series [2], the Arrhythmia is 1 and the Conduction defect is reported as 1. In addition, the “Pericardial edema severity” value in series [3] (20 µM) was “moderate to severe pericardial and yolk edema”. Besides, in series [3] (setting [9]), the “Edema: Mild” value was found to be 1, the “Edema: Moderate” value is reported as 3, the “Edema: No edema” value amounted to 0 and the “Edema: Severe” value is 1. Also, the “Gross morphology / developmental and teratogenic effects” value in series [4] is recorded as “teratogenic effects”.

For `CN1CCC(OC(c2ccccc2)c2ccccc2)CC1` [Diphenylpyraline hydrochloride], the “Lit. Solubility” value in series [5] is on record as “H2O, EtOH”. The “Z-score Heart rate” value in series [1] (setting [10]) is -3.549 z-score.

On to `[Cl-].[Na+]` [NaCl, sodium chloride], for which, in series [7], the Arrhythmia is 1, the “Chamber size Atrium Max. Contraction” value is reported as -0.090 z-score, the “Chamber size Atrium Max. Dilation” value is recorded as -0.215 z-score and the “Chamber size Ventricle Max. Contraction” value is listed as -0.643 z-score. In addition, in series [7], the “Chamber size Ventricle Max. Dilation” value is reported as 0.353 z-score; the Conduction defect was found to be 0; the “Effect on heart function / morphology” value was “did not significantly affect heart morphology or functionality”; the “Ejection Fraction Atrium” value is -0.097 z-score. Also, in series [7], the “Ejection Fraction Ventricle” value is on record as 1.036 z-score, the “FFT freq Atrium (heart rate)” value is -0.679 z-score, the “FFT freq Ventricle (heart rate)” value was -0.573 z-score and the Heart size worked out at 0.745 z-score. Also, in series [7], the “Relative contractility Atrium” value was -0.00158 z-score and the “Relative contractility Ventricle” value stood at 0.272 z-score. Moreover, in series [3] (zebrafish, in vivo), the “Edema: Mild” value came out at 7, the “Edema: Moderate” value turned out to be 0, the “Edema: No edema” value stood at 8 and the “Edema: Severe” value is given as 0.

For the compound `CN1CCN(C(c2ccccc2)c2ccc(Cl)cc2)CC1` (centres unmarked) [Chlorcyclizine hydrochloride], the “Lit. Solubility” value in series [5] is on record as “H2O, CHCl3”. The “Z-score Heart rate” value in series [1] (setting [8]) was -2.061 z-score.

As to `CC(C)(C)c1ccc(C(O)CCCN2CCC(C(O)(c3ccccc3)c3ccccc3)CC2)cc1` (centres unmarked) [Terfenadine], the “Lit. Solubility” value in series [5] was “EtOH/H2O:50/50”. The “Z-score Heart rate” value in series [1] (setting [10]) is -5.761 z-score.

As for `Cc1ccc(/C(=C\CN2CCCC2)c2ccccn2)cc1.Cl` [Triprolidine hydrochloride], the “Lit. Solubility” value in series [5] is given as “H2O, MeOH, EtOH”.

Consider `CN(C)CCC(c1ccc(Br)cc1)c1ccccn1` (centres unmarked) [Brompheniramine maleate], for which the “Z-score Heart rate” value in series [1] (setting [10]) was -2.122 z-score.

These data come from publication PMC10126419, “pyHeart4Fish: Chamber-specific heart phenotype quantification of zebrafish in high-content screens” (Frontiers in Cell and Developmental Biology, 2023).
